In patent US4209511A, “Aminoglycoside antibiotics and process for production thereof” (Yamanouchi Pharmaceutical Co., Ltd., priority 1978, dated 1980):
In brackets after ≈: the same amount, converted by molar mass. Like-named read-outs stand apart in the source and are kept apart here.

Assays:
[1] = test system: Micrococcus flavus ATCC 10240; assay: Minimum inhibitory concentration, Micrococcus flavus ATCC 10240; format: cell-based
Sarcina lutea ATCC 9341 = assay: Minimum inhibitory concentration, Sarcina lutea ATCC 9341; format: cell-based; conditions: Micrococcus luteus
[2] = test system: Staphylococcus aureus Smith; assay: Minimum inhibitory concentration, Staphylococcus aureus Smith; format: cell-based; conditions: read-out: Minimum Inhibitory Concentration
Mycobacterium phlei = assay: Minimum inhibitory concentration, Mycobacterium phlei; format: cell-based; conditions: Mycolicibacterium phlei, read-out: Minimum Inhibitory Concentration
Escherichia coli NIHJ = assay: Minimum inhibitory concentration, Escherichia coli NIHJ; format: cell-based; conditions: read-out: Minimum Inhibitory Concentration
[3] = test system: Salmonella enteritidis 1891; assay: Minimum inhibitory concentration, Salmonella enteritidis 1891; format: cell-based; conditions: Salmonella enterica, read-out: Minimum Inhibitory Concentration
Shigella sonnei II 37148 = assay: Minimum inhibitory concentration, Shigella sonnei II 37148; format: cell-based; conditions: II37148
Proteus vulgaris OXK US = assay: Minimum inhibitory concentration, Proteus vulgaris OXK US; format: cell-based; conditions: read-out: Minimum Inhibitory Concentration
[4] = test system: Pseudomonas aeruginosa ATCC 8689; assay: Minimum inhibitory concentration, Pseudomonas aeruginosa ATCC 8689; format: cell-based
[5] = test system: Pseudomonas melanogenum IAM 1655; assay: Minimum inhibitory concentration, Pseudomonas melanogenum IAM 1655; format: cell-based
[6] = test system: Staphylococcus aureus Onuma (PC-,SM-,Mac-resistant); assay: Minimum inhibitory concentration, Staphylococcus aureus Onuma (PC-,SM-,Mac-resistant); format: cell-based; conditions: read-out: Minimum Inhibitory Concentration
[7] = test system: Staphylococcus aureus (PC-,SM-,TC-,KM-,Mac-resistant); assay: Minimum inhibitory concentration, Staphylococcus aureus (PC-,SM-,TC-,KM-,Mac-resistant); format: cell-based; conditions: read-out: Minimum Inhibitory Concentration
[8] = test system: Escherichia coli K-12 ML-1629; assay: Minimum inhibitory concentration, Escherichia coli K-12 ML-1629; format: cell-based; conditions: K12ML1629; Escherichia coli K-12 ML-1629 (inactivates aminoglycosides with a phosphotransferase)
[9] = test system: Escherichia coli K-12 R-5; assay: Minimum inhibitory concentration, Escherichia coli K-12 R-5; format: cell-based; conditions: for MIC: K12R5, Escherichia coli K-12 R-5 (inactivates aminoglycosides with an acetyltransferase)
[10] = test system: Pseudomonas aeruginosa 99; assay: Minimum inhibitory concentration, Pseudomonas aeruginosa 99; format: cell-based; conditions: Pseudomonas aeruginosa 99 (inactivates aminoglycosides with an acetyltransferase)
[11] = test system: Pseudomonas aeruginosa GN-315; assay: Minimum inhibitory concentration, Pseudomonas aeruginosa GN-315; format: cell-based
Solubility = format: physicochemical; conditions: free base (lyophilized product)
in vivo = conditions: mouse, iv
[12] = ATCC10240, Micrococcus flavus ATCC 10240, read-out: Minimum Inhibitory Concentration
[13] = ATCC9341, read-out: Minimum Inhibitory Concentration
[14] = Pseudomonas aeruginosa, ATCC8689, read-out: Minimum Inhibitory Concentration
[15] = Pseudomonas, IAM1655, read-out: Minimum Inhibitory Concentration
[16] = Staphylococcus aureus Onuma (PC-,SM-,Mac-resistant)
[17] = Staphylococcus aureus (PC-,SM-,TC-,KM-,Mac-resistant)
[18] = GN315, Pseudomonas aeruginosa GN-315, read-out: Minimum Inhibitory Concentration
[19] = ATCC9341, Sarcina lutea ATCC 9341, read-out: Minimum Inhibitory Concentration
[20] = ATCC8689, Pseudomonas aeruginosa ATCC 8689, read-out: Minimum Inhibitory Concentration
[21] = IAM1655, Pseudomonas melanogenum IAM 1655, read-out: Minimum Inhibitory Concentration
[22] = Pseudomonas aeruginosa, GN315, read-out: Minimum Inhibitory Concentration
[23] = Micrococcus flavus, ATCC10240, read-out: Minimum Inhibitory Concentration

Compound	MIC [1, 12] [mg/L]	MIC (Sarcina lutea ATCC 9341; [13]) [mg/L]	MIC ([2]; Staphylococcus aureus Smith) [mg/L]	MIC (Mycobacterium phlei) [mg/L]	MIC (Escherichia coli NIHJ; Escherichia coli NIHJ) [mg/L]	MIC ([3]; Salmonella enteritidis 1891) [mg/L]	MIC (Shigella sonnei II 37148) [mg/L]	MIC (Proteus vulgaris OXK US; Proteus vulgaris) [mg/L]	MIC [4, 14] [mg/L]	MIC [5, 15] [mg/L]	MIC [6, 16] [mg/L]	MIC [7, 17] [mg/L]	MIC [8] [mg/L]	MIC [9] [mg/L]	MIC [10] [mg/L]	MIC [11, 18] [mg/L]	MIC (Sarcina lutea ATCC 9341; [19]) [mg/L]	MIC (Mycobacterium phlei; Mycobacterium phlei) [mg/L]	Solubility in acetone (Solubility)	Solubility in chloroform, benzene, ethyl acetate, butyl acetate, ether, n-hexane, etc. (Solubility)	also measured
NC[C@@H]1CC[C@@H](N)[C@@H](O[C@H]2[C@H](O)[C@@H](O[C@H]3O[C@H](CO)[C@@H](O)[C@H](N)[C@H]3O)[C@H](N)C[C@@H]2N)O1 [DKB, Dibekacin, reference compound]	3.13 (≈ 6.93 µM)	1.56 (≈ 3.45 µM)	0.78 (≈ 1.73 µM)	1.56 (≈ 3.45 µM)	0.78 (≈ 1.73 µM)	0.78 (≈ 1.73 µM)	1.56 (≈ 3.45 µM)	1.56 (≈ 3.45 µM)	1.56 (≈ 3.45 µM)	1.56 (≈ 3.45 µM)	0.19 (≈ 0.421 µM)	0.19 (≈ 0.421 µM)	1.56 (≈ 3.45 µM)	100 (≈ 221 µM)	1.56 (≈ 3.45 µM)	100 (≈ 221 µM)	–	–	–	–	–
CNC1C(O)C(OC2C(N)CC(N)C(OC3OC(CN)CCC3O)C2O)OC(CO)C1(C)O (centres unmarked) [I-A2, 3"-N-Methyl-4"-C-methyl-3',4'-dideoxykanamycin A or its 4"-epimer]	0.78 (≈ 1.62 µM)	–	–	–	1.56 (≈ 3.25 µM)	1.56 (≈ 3.25 µM)	3.13 (≈ 6.51 µM)	3.13 (≈ 6.51 µM)	–	–	–	6.25 (≈ 13 µM)	3.13 (≈ 6.51 µM)	> 100	12.5 (≈ 26 µM)	> 100	0.78 (≈ 1.62 µM)	1.56 (≈ 3.25 µM)	sparingly soluble	insoluble	MIC ([2]; Staphylococcus aureus): 3.13 mg/L (≈ 6.51 µM); MIC [4, 20]: 6.25 mg/L (≈ 13 µM); MIC [5, 21]: 6.25 mg/L (≈ 13 µM); MIC ([6]; Staphylococcus aureus): 3.13 mg/L (≈ 6.51 µM); Solubility in ethanol (Solubility): sparingly soluble; Solubility in methanol (Solubility): soluble; Solubility in water (Solubility): Very easily soluble
CNCC1CCC(N)C(OC2C(N)CC(N)C(OC3OC(CO)C(C)(O)C(NC)C3O)C2O)O1 (centres unmarked) [I-B1, 3"-N-Methyl-4"-C-methyl-3',4'-dideoxy-6'-N-methylkanamycin B or its 4"-epimer]	0.39 (≈ 0.79 µM)	–	0.39 (≈ 0.79 µM)	–	0.78 (≈ 1.58 µM)	0.78 (≈ 1.58 µM)	0.78 (≈ 1.58 µM)	–	3.13 (≈ 6.34 µM)	1.56 (≈ 3.16 µM)	0.19 (≈ 0.385 µM)	0.19 (≈ 0.385 µM)	1.56 (≈ 3.16 µM)	1.56 (≈ 3.16 µM)	3.13 (≈ 6.34 µM)	–	0.39 (≈ 0.79 µM)	0.78 (≈ 1.58 µM)	sparingly soluble	insoluble	MIC (Proteus vulgaris OXK US; Proteus vulgaris OXK US): 0.78 mg/L (≈ 1.58 µM); inhibited the growth of resistant bacteria ([9]; Escherichia coli K-12 R-5, inactivates Kanamycin B by acetylating the 6'-amino group): inhibited the growth; inhibited the growth of resistant bacteria ([11]; Pseudomonas aeruginosa GN 315, inactivates Kanamycin B by acetylating the 6'-amino group): inhibited the growth; MIC [11, 22]: 1.56 mg/L (≈ 3.16 µM); Solubility in ethanol (Solubility): soluble; Solubility in methanol (Solubility): soluble; Solubility in water (Solubility): Very easily soluble
CNC1C(O)C(OC2C(N)CC(N)C(OC3OC(CN)CCC3N)C2O)OC(CO)C1(C)O (centres unmarked) [I-B2, 3"-N-Methyl-4"-C-methyl-3',4'-dideoxykanamycin B or its 4"-epimer]	0.39 (≈ 0.813 µM)	–	0.39 (≈ 0.813 µM)	–	0.78 (≈ 1.63 µM)	0.39 (≈ 0.813 µM)	0.78 (≈ 1.63 µM)	–	–	1.56 (≈ 3.25 µM)	0.19 (≈ 0.396 µM)	0.19 (≈ 0.396 µM)	1.56 (≈ 3.25 µM)	25 (≈ 52.1 µM)	6.25 (≈ 13 µM)	50 (≈ 104 µM)	0.39 (≈ 0.813 µM)	0.39 (≈ 0.813 µM)	sparingly soluble	insoluble	MIC (Proteus vulgaris OXK US; Proteus vulgaris OXK US): 0.78 mg/L (≈ 1.63 µM); MIC [4, 20]: 3.13 mg/L (≈ 6.53 µM); Solubility in ethanol (Solubility): sparingly soluble; Solubility in methanol (Solubility): soluble; Solubility in water (Solubility): Very easily soluble; MTD (in vivo): 125 mg/kg
NCC1OC(OC2C(N)CC(N)C(OC3OC(CO)C(O)C(N)C3O)C2O)C(O)C(O)C1O (centres unmarked) [KM-A, Kanamycin A, reference compound]	–	3.13 (≈ 6.46 µM)	–	1.56 (≈ 3.22 µM)	–	–	3.13 (≈ 6.46 µM)	6.25 (≈ 12.9 µM)	> 100	–	–	–	> 100	> 100	100 (≈ 206 µM)	–	–	–	–	–	MIC [1, 23]: 6.25 mg/L (≈ 12.9 µM); MIC ([2]; Staphylococcus aureus): 3.13 mg/L (≈ 6.46 µM); MIC (Escherichia coli NIHJ; Escherichia coli): 3.13 mg/L (≈ 6.46 µM); MIC ([3]; ENTERITIDIS): 3.13 mg/L (≈ 6.46 µM); MIC [5, 21]: > 100 mg/L; MIC ([6]; Staphylococcus aureus): 1.56 mg/L (≈ 3.22 µM); MIC ([7]; Staphylococcus aureus): > 100 mg/L; MIC [11, 22]: > 100 mg/L
NC[C@H]1O[C@H](O[C@H]2[C@H](O)[C@@H](O[C@H]3O[C@H](CO)[C@@H](O)[C@H](N)[C@H]3O)[C@H](N)C[C@@H]2N)[C@H](N)[C@@H](O)[C@@H]1O [KM-B, Kanamycin B, reference compound]	–	0.78 (≈ 1.61 µM)	–	3.13 (≈ 6.47 µM)	–	–	1.56 (≈ 3.23 µM)	6.25 (≈ 12.9 µM)	100 (≈ 207 µM)	50 (≈ 103 µM)	0.78 (≈ 1.61 µM)	50 (≈ 103 µM)	> 100	> 100	50 (≈ 103 µM)	100 (≈ 207 µM)	–	–	–	–	MIC [1, 23]: 1.56 mg/L (≈ 3.23 µM); MIC (Escherichia coli NIHJ; Escherichia coli): 1.56 mg/L (≈ 3.23 µM); MIC ([3]; ENTERITIDIS): 1.56 mg/L (≈ 3.23 µM)
